Patent publication US8580762B2, “Substituted purine and 7-deazapurine compounds” (Epizyme, Inc., priority 2010, dated 2013)
Where two headings read alike, the source gives them in different places.

Biological target: DOT1L(1-416) (Homo sapiens, UniProt Q8TEK3)
Test: Determination of IC50: DOT1L(1-416) methyltransferase assay, 3H-SAM, oligonucleosome substrate, Flashplate
Assay type: biochemical
In short: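 Compounds in 10-point 3-fold DMSO dilutions were tested in reactions started with substrate mix of 200 nM [3H]-SAM, 600 nM unlabeled SAM and 20 nM oligonucleosome. Reactions ran 120 min at room temperature and were quenched with 100 μM SAM. Labeled substrate was captured on streptavidin Flashplates and counted by scintillation to give IC50.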

[1] = class symbols, read-out: DOT1L IC50

Sequence of DOT1L(1-416) (Q8TEK3 1-416): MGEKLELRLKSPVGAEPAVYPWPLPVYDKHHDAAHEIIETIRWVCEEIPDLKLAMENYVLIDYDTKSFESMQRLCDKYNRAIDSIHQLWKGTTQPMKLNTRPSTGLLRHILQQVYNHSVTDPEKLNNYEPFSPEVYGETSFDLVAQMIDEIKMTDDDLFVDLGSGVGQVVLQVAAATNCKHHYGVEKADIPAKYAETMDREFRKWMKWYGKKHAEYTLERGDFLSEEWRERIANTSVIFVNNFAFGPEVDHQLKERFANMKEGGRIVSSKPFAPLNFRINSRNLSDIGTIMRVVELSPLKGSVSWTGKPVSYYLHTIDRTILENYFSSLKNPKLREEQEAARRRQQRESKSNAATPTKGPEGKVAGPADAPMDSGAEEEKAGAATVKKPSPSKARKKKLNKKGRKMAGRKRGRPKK

IC50 [1]	SMILES	also measured
< 100 nM	CC(C)N(C[C@H]1O[C@@H](n2ccc3c(N)ncnc32)[C@H](O)[C@@H]1O)[C@H]1C[C@@H](CCc2nc3cc(C(C)(C)C)ccc3[nH]2)C1 [Compound 90, (2R,3R,4S,5R)-2-(4-amino-7H-pyrrolo[2,3-d]pyrimidin-7-yl)-5-((((1r,3S)-3-(2-(5-(tert-butyl)-1H-benzo[d]imidazol-2-yl)ethyl)cyclobutyl)(isopropyl)amino)methyl)tetrahydrofuran-3,4-diol]	–
1000 to 10000 nM	CC(C)N(C[C@@H]1C[C@@H](O)[C@H](n2ccc3c(N)ncnc32)C1)[C@H]1C[C@H](CCc2nc3cc(Cl)c(C(F)(F)F)cc3[nH]2)C1 [Compound 103, (1R,2R,4S)-2-(4-amino-7H-pyrrolo[2,3-d]pyrimidin-7-yl)-4-((((1s,3S)-3-(2-(5-chloro-6-(trifluoromethyl)-1H-benzo[d]imidazol-2-yl)ethyl)cyclobutyl) (isopropyl)amino)methyl)cyclopentanol]	–
< 100 nM	CC(C)N(C[C@H]1O[C@@H](n2cnc3c(N)ncnc32)[C@H](O)[C@@H]1O)C1CC(CCc2nc3cc(C4CCC4)ccc3[nH]2)C1 (stereo partly drawn) [Compound 111, (2R,3R,4S,5R)-2-(6-amino-9H-purin-9-yl)-5-(((3-(2-(5-cyclobutyl-1H-benzo[d]imidazol-2-yl)ethyl)cyclobutyl) (isopropyl)amino)methyl)tetrahydrofuran-3,4-diol]	–
< 100 nM	CC(C)N(C[C@H]1O[C@@H](n2cnc3c(N)ncnc32)[C@H](O)[C@@H]1O)[C@H]1C[C@@H](CCc2nc3cc(CC(F)(F)F)ccc3[nH]2)C1 [Compound 124, (2R,3R,4S,5R)-2-(6-amino-9H-purin-9-yl)-5-((isopropyl((1r,3S)-3-(2-(5-(2,2,2-trifluoroethyl)-1H-benzo[d]imidazol-2-yl)ethyl)cyclobutyl)amino)methyl) tetrahydrofuran-3,4-diol]	–
< 100 nM	CC(C)(C)c1ccc2[nH]c(CC[C@H]3C[C@H](NC[C@H]4O[C@@H](n5cnc6c(N)ncnc65)[C@H](O)[C@@H]4O)C3)nc2c1 [Compound 99, (2R,3R,4S,5R)-2-(6-amino-9H-purin-9-yl)-5-((((1s,3R)-3-(2-(5-(tert-butyl)-1H-benzo[d]imidazol-2-yl)ethyl)cyclobutyl)amino)methyl) tetrahydrofuran-3,4-diol]	–
< 100 nM	CN(C[C@H]1O[C@@H](n2cnc3c(N)ncnc32)[C@H](O)[C@@H]1O)[C@H]1C[C@H](CCc2nc3cc(C4CC4)ccc3[nH]2)C1 [Compound 134, (2R,3R,4S,5R)-2-(6-amino-9H-purin-9-yl)-5-((((1s,3R)-3-(2-(5-cyclopropyl-1H-benzo[d]imidazol-2-yl)ethyl)cyclobutyl) (methyl)amino)methyl) tetrahydrofuran-3,4-diol]	–
< 100 nM	CC(C)N(C[C@H]1O[C@@H](n2cnc3c(N)ncnc32)[C@H](O)[C@@H]1O)C1CC(CCc2nc3cc(C4(C)CC4)ccc3[nH]2)C1 (stereo partly drawn) [Compound 139, (2R,3R,4S,5R)-2-(6-amino-9H-purin-9-yl)-5-((isopropyl(3-(2-(5-(1-methylcyclopropyl)-1H-benzo[d]imidazol-2-yl)ethyl)cyclobutyl)amino)methyl)tetrahydro-furan-3,4-diol]	–
< 100 nM	CC(C)N(C[C@H]1O[C@@H](n2cnc3c(N)ncnc32)[C@H](O)[C@@H]1O)C1CC(CCc2nc3cc(C4CC4)ccc3[nH]2)C1 (stereo partly drawn) [Compound 112, (2R,3R,4S,5R)-2-(6-amino-9H-purin-9-yl)-5-(((3-(2-(5-cyclopropyl-1H-benzo[d]imidazol-2-yl)ethyl)cyclobutyl) (isopropyl)amino)methyl)tetrahydrofuran-3,4-diol]	–
< 100 nM	CC(C)N(C[C@H]1O[C@@H](n2cnc3c(N)ncnc32)[C@H](O)[C@@H]1O)[C@H]1C[C@@H](CCc2nc3cc(C4CC4)ccc3[nH]2)C1 [Compound 116, (2R,3R,4S,5R)-2-(6-amino-9H-purin-9-yl)-5-((((1r,3S)-3-(2-(5-cyclopropyl-1H-benzo[d]imidazol-2-yl)ethyl)cyclobutyl) (isopropyl)amino)methyl)tetrahydrofuran-3,4-diol]	–

Continued, compound first:

SMILES	IC50 [1]	also measured
CC(C)(C)c1ccc2[nH]c(CC[C@H]3C[C@H](N(CC4CCC4)C[C@H]4C[C@@H](n5ccc6c(N)ncnc65)[C@H](O)[C@@H]4O)C3)nc2c1 [Compound 59, (1R,2S,3R,5R)-3-(4-amino-7H-pyrrolo[2,3-d]pyrimidin-7-yl)-5-((((1s,3R)-3-(2-(5-(tert-butyl)-1H-benzo[d]imidazol-2-yl)ethyl)cyclobutyl)(cyclobutylmethyl)amino)methyl)cyclopentane-1,2-diol]	< 100 nM	–
CC(C)N(C[C@H]1O[C@@H](n2ccc3c(N)ncnc32)[C@H](O)[C@@H]1O)[C@H]1C[C@H](CCc2nc3cc(C(C)(C)C)ccc3[nH]2)C1 [Compound 75, (2R,3R,4S,5R)-2-(4-amino-7H-pyrrolo[2,3-d]pyrimidin-7-yl)-5-((((1s,3R)-3-(2-(5-(tert-butyl)-1H-benzo[d]imidazol-2-yl)ethyl)cyclobutyl)(isopropyl)amino)methyl)tetrahydrofuran-3,4-diol]	< 100 nM	IC50 (read-out: DOT1L IC50): 0.59 nM
CC(C)(C)c1ccc2[nH]c(CC[C@H]3C[C@@H](N(CC4CCC4)C[C@H]4C[C@@H](n5ccc6c(N)ncnc65)[C@H](O)[C@@H]4O)C3)nc2c1 [Compound 42, (1R,2S,3R,5R)-3-(4-amino-7H-pyrrolo[2,3-d]pyrimidin-7-yl)-5-((((1r,3S)-3-(2-(5-(tert-butyl)-1H-benzo[d]imidazol-2-yl)ethyl)cyclobutyl)(cyclobutylmethyl)amino)methyl)cyclopentane-1,2-diol]	< 100 nM	–
CC(C)CN(C[C@H]1C[C@@H](n2ccc3c(N)ncnc32)[C@H](O)[C@@H]1O)C1CC(CCc2nc3cc(C(C)(C)C)ccc3[nH]2)C1 (stereo partly drawn) [Compound 45, (1R,2S,3R,5R)-3-(4-amino-7H-pyrrolo[2,3-d]pyrimidin-7-yl)-5-(((3-(2-(5-(tert-butyl)-1H-benzo[d]imidazol-2-yl)ethyl)cyclobutyl)(isobutyl)amino)methyl)cyclopentane-1,2-diol]	< 100 nM	–
CN(C[C@H]1O[C@@H](n2cnc3c(N)ncnc32)[C@H](O)[C@@H]1O)[C@H]1C[C@@H](CCc2nc3cc(C4CCC4)ccc3[nH]2)C1 [Compound 131, (2R,3R,4S,5R)-2-(6-amino-9H-purin-9-yl)-5-((((1r,3S)-3-(2-(5-cyclobutyl-1H-benzo[d]imidazol-2-yl)ethyl)cyclobutyl) (methyl)amino)methyl) tetrahydrofuran-3,4-diol]	< 100 nM	–
CC(C)[N+]([O-])(CC1O[C@@H](n2cnc3c(N)ncnc32)[C@H](O)[C@@H]1O)[C@H]1C[C@H](CCc2nc3cc(C(C)(C)C)ccc3[nH]2)C1 (stereo partly drawn) [Compound 107, (R,1s,3R)-N-(((2R,35,4R,5R)-5-(6-amino-9H-purin-9-yl)-3,4-dihydroxy-tetrahydrofuran-2-yl)methyl)-3-(2-(5-(tert-butyl)-1H-benzo[d]imidazol-2-yl)ethyl)-N-isopropyl-cyclobutanamine oxide]	–	IC50 (DOT1L IC50, class symbols): < 100 nM
CN(C[C@H]1O[C@@H](n2cnc3c(N)ncnc32)[C@H](O)[C@@H]1O)[C@H]1C[C@@H](CCc2nc3cc(C(C)(C)C)ccc3[nH]2)C1 [Compound 71, (2R,3R,4S,512)-2-(6-amino-9H-purin-9-yl)-5-((((1r,3S)-3-(2-(5-(tert-butyl)-1H-benzo[d]imidazol-2-yl)ethyl)cyclobutyl)(methyl)amino)methyl)tetrahydrofuran-3,4-diol]	< 100 nM	–
CN(C[C@H]1C[C@@H](n2ccc3c(N)ncnc32)[C@H](O)[C@@H]1O)C1CC(CCc2nc3cc(Br)ccc3[nH]2)C1 (stereo partly drawn) [Compound 26, (1R,2S,3R,5R)-3-(4-amino-7H-pyrrolo[2,3-d]pyrimidin-7-yl)-5-(((3-(2-(5-bromo-1H-benzo[d]imidazol-2-yl)ethyl)cyclobutyl)(methyl)amino)methyl)cyclopentane-1,2-diol]	< 100 nM	–
CN(C[C@H]1C[C@@H](n2ccc3c(N)ncnc32)[C@H](O)[C@@H]1O)[C@H]1C[C@H](CCc2nc3cc(C(F)(F)F)ccc3[nH]2)C1 [Compound 11, (1R,2S,3R,5R)-3-(4-amino-7H-pyrrolo[2,3-d]pyrimidin-7-yl)-5-((methyl((1s,3R)-3-(2-(5-(trifluoromethyl)-1H-benzo[d]imidazol-2-yl)ethyl)cyclobutyl)amino)methyl)cyclopentane-1,2-diol]	< 100 nM	–
CN(C[C@@H]1C[C@@H](O)[C@H](n2ccc3c(N)ncnc32)C1)[C@H]1C[C@@H](CCc2nc3cc(Cl)c(C(F)(F)F)cc3[nH]2)C1 [Compound 81, (1R,2R,4S)-2-(4-amino-7H-pyrrolo[2,3-d]pyrimidin-7-yl)-4-((((1r,3R)-3-(2-(5-chloro-6-(trifluoromethyl)-1H-benzo[d]imidazol-2-yl)ethyl)cyclobutyl) (methyl)amino)methyl) cyclopentanol]	100 to 1000 nM	–
CC(C)CN(C[C@H]1C[C@@H](n2ccc3c(N)ncnc32)[C@H](O)[C@@H]1O)[C@H]1C[C@H](CCc2nc3cc(C(C)(C)C)ccc3[nH]2)C1 [Compound 48, (1R,2S,3R,5R)-3-(4-amino-7H-pyrrolo[2,3-d]pyrimidin-7-yl)-5-((((1s,3R)-3-(2-(5-(tert-butyl)-1H-benzo[d]imidazol-2-yl)ethyl)cyclobutyl)(isobutyl)amino)methyl)cyclopentane-1,2-diol]	< 100 nM	–
CCN(C[C@H]1C[C@@H](n2ccc3c(N)ncnc32)[C@H](O)[C@@H]1O)[C@H]1C[C@@H](CCc2nc3cc(C(C)(C)C)ccc3[nH]2)C1 [Compound 38, (1R,2S,3R,5R)-3-(4-amino-7H-pyrrolo[2,3-d]pyrimidin-7-yl)-5-((((1r,3S)-3-(2-(5-(tert-butyl)-1H-benzo[d]imidazol-2-yl)ethyl)cyclobutyl)(ethyl)amino)methyl)cyclopentane-1,2-diol]	< 100 nM	–
CN(C[C@H]1C[C@@H](n2ccc3c(N)ncnc32)[C@H](O)[C@@H]1O)[C@H]1C[C@@H](CCc2nc3cc(Cl)c(Cl)cc3[nH]2)C1 [Compound 52, (1R,2S,3R,5R)-3-(4-amino-7H-pyrrolo[2,3-d]pyrimidin-7-yl)-5-((((1r,3S)-3-(2-(5,6-dichloro-1H-benzo[d]imidazol-2-yl)ethyl)cyclobutyl)(methyl)amino)methyl)cyclopentane-1,2-diol]	< 100 nM	–
